{
  "source": "patent US20230233533A1",
  "about": "“COMPOSITIONS, METHODS OF TREATING AND PREVENTING FUNGAL INFECTIONS, AND METHODS OF INHIBITING PRP8 INTEIN EXPRESSION” (Health Research, Inc., priority 2020, published 2023)",
  "key": {"[1]": {"system": "C. neoformans (H99)", "assay": "In vivo preliminary efficacy study, intranasal infection of BALB/c mice", "design": "species or system Cryptococcus neoformans", "settings": "75 mg/kg oral gavage once daily", "procedure": "FIG. 7 illustrates efficacy of 6G318S in mouse models. BALB/c mice (5-6 wk old, male and female were dosed orally by either vehicle control (VC) or 6G318S-75 mg/kg once daily for 5 days. On day 5, all mice were euthanized, lungs were collected, weighed and homogenized in RPMI-1640-MOPS media. Serial 10-fold dilution of the homogenate is made and a volume of 100 ul is plated on to Sabouraud Dextrose-agar plates with antibiotics. Colonies were counted on day 3 and normalized to weight of the lung.\nTreatment was given for 6 days. On day 6 few mice were euthanized to check the […] in lungs."}, "[2]": {"molecular_target": "T1, C1A Prp8 intein mutant (Cryptococcus gattii, UniProt E6R027, C1531A)", "T1 sequence (E6R027 1531-1700 C1531A)": "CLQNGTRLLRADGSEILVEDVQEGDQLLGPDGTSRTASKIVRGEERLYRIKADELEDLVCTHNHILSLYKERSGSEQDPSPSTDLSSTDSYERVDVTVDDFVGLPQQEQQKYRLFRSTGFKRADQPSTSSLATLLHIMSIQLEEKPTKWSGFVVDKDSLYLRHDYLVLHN", "settings": "C1A versus WT, SPR", "procedure": "The Prp8 intein and mutants were immobilized onto a ProteOn™ GLH sensor chip (2,500-7,000 RU) (Bio-Rad). A 3-fold dilution series of compounds was injected as the analytes. A blank surface blocked by ethanolamine was used as the control surface. The experiment was carried out at a flow rate of 100 μl/min using a PBSTD buffer containing 1×PBS, 0.005% surfactant P20, and 5% DMSO. Association (ka) and dissociation (kd) rates, as well as the dissociation constant (KD), were obtained by global fitting of the SPR data from multiple concentrations to a simple 1:1 Langmuir binding model, using the ProteOn Manager software suite (Bio-Rad)."}, "[3]": {"system": "Candida albicans", "assay": "Fungal susceptibility test, broth microdilution MIC", "type": "cell-based", "settings": "microdilution assay", "procedure": "Fungal susceptibility test—The fungal susceptibility test was carried out with a compound concentration series as described. Li et al., “Cisplatin Protects Mice From Challenge of Cryptococcus neoformans by Targeting the Prp8 Intein,” Emerging Microbes & Infections 8(1):895-908 (2019), which is hereby incorporated by reference in its entirety. The broth microdilution method was used to determine the compound MIC values against C. neoformans. In brief, serial 2-fold dilutions of the 6G-318SS (20 to 0.03 μg/ml) were made in 100 μl RPMI-1640 medium with MOPS in 96-well U-bottom plates. The C. neoformans H99 strain (100 μl of 0.5×10^5/ml) in log phase was added to each well. […] The MIC break-point was defined as no visible fungal growth by naked eye or by determining the 90% growth inhibition using absorbance at 630 nm, compared with no inhibitor control in a 96-well plate.\nC. albicans, a fungus without the Prp8 intein, was also used as a control."}, "[4]": {"assay": "In vivo toxicity studies in adult BALB/c mice", "procedure": "Mouse 1: Oral, VC—125 ul of formulation without drug is given per mouse by oral gavage\nMouse 3: IP, VC—60 ul of the formulation without the drug is injected intraperitoneally\nA total of 5 doses were given (one/day). Weight, posture, movement, activity, paralysis, seizure, and fur nature were monitored in the morning and evening."}, "[5]": {"system": "C. neoformans strain H99", "assay": "Minimum fungicidal concentration (MFC) determination", "type": "cell-based", "settings": "Cryptococcus neoformans", "procedure": "[…] cells (100 ul of 0.5×10^5/ml) in log phase were added to each well. […] Then, the cultured cells in selected wells were first suspended by gentle pipetting. 50 μl of the cell culture suspension from each well was plated onto the Sabouraud dextrose agar (SDA) plates and further incubated for 48 h. MFC is defined as the minimum concentration where there is no growth after plating to the SDA plates. […] To determine minimum fungicidal concentration (MFC), the cultured cells in selected wells were first suspended by gentle pipetting. Then 50 ul of the cell culture suspension from each well was plated onto the Sabouraud dextrose agar (SDA) plates and further incubated for 48 h. MFC is defined as the minimum fungicidal concentration where there is no growth after plating on the SDA plates."}, "[6]": {"system": "trypsin", "assay": "Trypsin protease inhibition (Abz FRET substrate)", "type": "biochemical", "settings": "compound at 400 μM", "procedure": "Trypsin and papain protease inhibition—An Abz FRET substrate (Abz-RRRRSAG-nTyr) developed previously (Li et al., “Existing Drugs as Broad-Spectrum and Potent Inhibitors for Zika Virus by Targeting NS2B-NS3 Interaction,” Cell Research 27(8):1046-1064 (2017), which is hereby incorporated by reference in its entirety) was used as the substrate for inhibition of trypsin and papain proteases. In black and clear-bottom 96-well plates, 1 μg trypsin (Sigma-Aldrich) was incubated with DMF or compounds at 400 μM at 25° C. for 30 min in a 70 μl reaction buffer containing 20 mM Tris, pH 8.0, 100 mM NaCl, 5% Glycerol, and 0.05% CHAPS. For papain, 1 μg Papain (Sigma-Aldrich) was incubated with compounds at 400 μM at 25° C. for 30 min in a 70 μl reaction buffer composed of 1.1 mM EDTA, 0.067 mM β-mercaptoethanol, 5.5 mM cysteine. […]"}},
  "data": [
    {"smiles": "O=C(Nc1ccc(F)cc1)c1nnsc1S(=O)(=O)c1ccc(Cl)cc1", "note": "[6G-318S, 5-[(4-chlorophenyl)sulfonyl]-N-(4-fluorophenyl)-1,2,3-thiadiazole-4-carboxamide]", "values": [
      {"measurement": "fungal cells in lungs versus vehicle controls", "setting": "[1]", "value": "indication of reduction of fungal cells in lungs"},
      {"measurement": "reduction of binding affinity by Cys1 to alanine mutation", "setting": "[2]", "value": "~3", "unit": "fold"},
      {"measurement": "MIC", "setting": "[3]", "value": 5, "unit": "µg/mL"},
      {"measurement": "observed condition of mouse", "setting": "[4]; 50 mg/kg intraperitoneally", "value": "died on day 2"},
      {"measurement": "dose with no observed toxicity / safe dose, oral", "setting": "[4]; mouse, in vivo, po, 5 days", "value": 200, "unit": "mg/kg"},
      {"measurement": "MFC", "setting": "[5]", "value": 1.25, "unit": "µg/mL"},
      {"measurement": "inhibition of trypsin protease activity", "setting": "[6]", "value": "neither 6G-318S, 6G-319S, nor cisplatin significantly inhibited"}
    ]}
  ]
}
